Reference: US9145354B2, “Pharmaceutical compounds” (priority 2011, dated 2015)
Where two headings read alike, the source gives them in different places.

Target: full length NS3/4a (Hepatitis C virus genotype 1b (isolate BK) (HCV), UniProt P26663)
Assay: NS3 Protease Assay (Example A), FRET-based
Type: biochemical
How it was run: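 Initial rates were taken from fluorescence progress curves over 30 min at room temperature, and IC50 was fitted across replicates. In-house full-length NS3/4a cleaved a FRET peptide (5-FAMsp/QXL520) from the NS4A/B site. Medium: 50 mM Tris pH8, 20 mM DTT, 1% CHAPS, 10% glycerol, 5% DMSO.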

[1] = HCV NS3 protease assay, full length NS3/4a, read-out: Assay A IC50 (μM) average
[2] = read-out: IC50 against the protease activity of the full length NS3/4a
[3] = stated as IC50 less than 30 μM or at least 40% inhibition at a concentration of 100 μM, read-out: IC50 against the protease activity of the full length NS3/4a

Chain of full length NS3/4a (P26663 1027-1657): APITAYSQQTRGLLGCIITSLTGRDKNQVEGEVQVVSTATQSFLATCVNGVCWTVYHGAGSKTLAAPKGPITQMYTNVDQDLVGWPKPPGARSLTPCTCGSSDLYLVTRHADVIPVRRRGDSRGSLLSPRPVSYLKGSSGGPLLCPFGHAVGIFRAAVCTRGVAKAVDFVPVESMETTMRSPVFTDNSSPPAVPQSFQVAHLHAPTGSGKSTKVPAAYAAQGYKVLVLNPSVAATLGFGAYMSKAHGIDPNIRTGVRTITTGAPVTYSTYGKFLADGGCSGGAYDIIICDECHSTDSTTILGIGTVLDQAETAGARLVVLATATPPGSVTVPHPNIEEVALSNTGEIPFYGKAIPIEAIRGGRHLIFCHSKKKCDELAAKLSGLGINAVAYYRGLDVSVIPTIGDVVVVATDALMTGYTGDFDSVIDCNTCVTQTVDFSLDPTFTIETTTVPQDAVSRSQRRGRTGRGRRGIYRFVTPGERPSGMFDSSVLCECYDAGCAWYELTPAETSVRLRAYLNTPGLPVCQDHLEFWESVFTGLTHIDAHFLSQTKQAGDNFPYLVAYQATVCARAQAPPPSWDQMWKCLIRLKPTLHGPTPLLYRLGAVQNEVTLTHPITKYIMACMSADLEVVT

| SMILES | IC50 [1] [µM] | IC50 [2] [µM] | other results |
| --- | --- | --- | --- |
| CC[C@@H](N[C@H](C)CC(N)=O)c1ccc(Cl)c(C(=O)c2cc(C)c(N)cn2)c1F [Example 246, (3R)-3-{[(1R)-1-{3-[(5-amino-4-methylpyridin-2-yl)carbonyl]-4-chloro-2-fluorophenyl}propyl]amino} butanamide] | 3.9 | 1 to 5 | – |
| CC[C@@H](N[C@@H]1CCOC1)c1ccc(Cl)c(C(=O)c2cccnc2)c1F [Example 292, (3R)-N-[(1R)-1-{4-chloro-2-fluoro-3-[(pyridin-3-yl)carbonyl]phenyl}propyl] oxolan-3-amine] | – | – | inhibition at 10 µM: 4% |
| CC[C@@H](N)c1ccc(Cl)c(C(=O)c2ccns2)c1F [Example 16, (1R)-1-{4-chloro-2-fluoro-3-[(1,2-thiazol-5-yl)carbonyl]phenyl}propan-1-amine] | 0.47 | < 1 | – |
| CC[C@@H](N[C@H](C)CO)c1ccc(Cl)c(C(=O)c2cccnc2)c1F [Example 166, (2R)-2-{[(1R)-1-{4-chloro-2-fluoro-3-[(pyridin-3-yl)carbonyl}phenyI}-propyl]amino}propan-1-ol] | 6.3 | – | IC50 [3]: < 30 µM |
| CC[C@@H](N[C@@H](C)CC(N)=O)c1ccc(Cl)c(C(=O)c2cccc(CO)c2)c1F [Example 188, (3S)-3-{[(1R)-1-(4-chloro-2-fluoro-3-{[3-(hydroxymethyl)-phenyl]carbonyl}phenyl)-propyl]amino}butanamide] | 0.14 | – | – |
| CC[C@@H](NC)c1ccc(Cl)c(C(=O)c2cccnc2)c1F [Example 289, [(1R)-1-{4-chloro-2-fluoro-3-[(pyridin-3-yl)carbonyl]phenyl}propyl](methyl)amine] | 2.4 | 1 to 5 | – |
| CC[C@@H](NC(C)C)c1ccc(Cl)c(C(=O)c2cccnc2)c1F [Example 285, [(1R)-1-{4-chloro-2-fluoro-3-[(pyridin-3-yl)carbonyl]phenyl}propyl] (propan-2-yl)amine] | 2 | 1 to 5 | – |
| CC[C@@H](N[C@@H](CC(N)=O)C(C)C)c1ccc(Cl)c(C(=O)c2ccc(N)nc2)c1F [Example 218, (3S)-3-{[(1R)-1-{3-[(6-aminopyridin-3-yl)carbonyl]-4-chloro-2-fluorophenyl}propyl]amino}-4-methylpentanamide] | – | 1 to 5 | inhibition at 1 µM: 42% |
| CC[C@@H](N)c1ccc(Cl)c(C(=O)c2ccc(O)cc2)c1F (stereo in doubt) [Example 193, [3-(1-Amino-propyl)-6-chloro-2-fluoro-phenyl]-(4-hydroxy-phenyl)-methanone] | 0.31 | < 1 | – |
| CC[C@@H](N[C@H](C)CC(N)=O)c1ccc(OC)c(C(=O)c2cccc(F)c2)c1F [Example 211, (3R)-3-{[(1R)-1-{2-fluoro-3-[(3-fluorophenyl)carbonyl]-4-methoxyphenyl}propyl]amino}butanamide] | – | 1 to 5 | inhibition at 1 µM: 47% |
| CC[C@@H](N)c1ccc(Cl)c(C(=O)c2ccc(N(C)C)nc2)c1F [Example 35, 5-({3-[(1R)-1-aminopropyl]-6-chloro-2-fluorophenyl}carbonyl)-N,N-dimethylpyridin-2-amine] | – | – | inhibition at 10 µM: 30% |
| CC[C@@H](N)c1ccc(Cl)c(C(=O)c2ccc(=O)[nH]c2)c1F [Example 38, 5-({3-[(1R)-1-aminopropyl]-6-chloro-2-fluorophenyl}carbonyl)-1,2-dihydropyridin-2-one] | 3.6 | 1 to 5 | – |
| COc1ccc([C@H](N)C2CC2)c(F)c1C(=O)c1cccc(F)c1 [Example 201, (R)-cyclopropyl({2-fluoro-3-[(3-fluorophenyl)carbonyl]-4-methoxyphenyl})methanamine] | 3 | 1 to 5 | – |
| CC[C@H](CC(N)=O)N[C@H](CC)c1ccc(Cl)c(C(=O)c2ccc(N)nc2)c1F [Example 226, (3R)-3-{[(1R)-1-{3-[(6-aminopyridin-3-yl)carbonyl]-4-chloro-2-fluorophenyl}propyl]amino}pentanamide] | 1.1 | 1 to 5 | – |
| CC[C@H](NC(=O)C1CCNC1)c1ccc(Cl)c(C(=O)c2cccnc2)c1F (stereo partly drawn) [Example 295, N-[(1S)-1-{4-chloro-2-fluoro-3-[(pyridin-3-yl)carbonyl]phenyl}propyl] pyrrolidine-3-carboxamide] | – | – | inhibition at 3 µM: 38% |
| C[C@H](CC(N)=O)N[C@@H](c1ccc(Cl)c(C(=O)c2cnc(N)cn2)c1F)C1CC1 [Example 195, (3R)-3-{[(R)-{3-[(5-aminopyrazin-2-yl)carbonyl]-4-chloro-2-fluorophenyl}(cyclo-propyl)methyl]amino}-butanamide] | 6.2 | – | IC50 [3]: < 30 µM |
| CC[C@@H](NCC(N)=O)c1ccc(Cl)c(C(=O)c2cccnc2)c1F [Example 164, 2-{[(1R)-1-{4-Chloro-2-fluoro-3-[(pyridin-3-yl)carbonyl]phenyl}propyl]amino}-acetamide] | – | – | inhibition at 10 µM: 37% |

| SMILES | IC50 [1] [µM] | IC50 [2] [µM] | other results |
| --- | --- | --- | --- |
| CC[C@H](NC(=O)CCN)c1ccc(Cl)c(C(=O)c2cccnc2)c1F [Example 297, 3-amino-N-[(1S)-1-{4-chloro-2-fluoro-3-[(pyridin-3-yl)carbonyl]phenyl}propyl] propanamide] | 0.15 | < 1 | – |
| CC[C@@H](N[C@H](C)CC(N)=O)c1ccc(Cl)c(C(=O)c2cccc(C#N)c2)c1F [Example 102, (3R)-3-{[(1R)-1-{4-chloro-3-[(3-cyanophenyl)carbonyl]-2-fluorophenyl}propyl]amino}-butanamide] | 1.2 | 1 to 5 | – |
| COc1ccc([C@H](N)C2CC2)c(F)c1C(=O)c1ccc(F)cc1 [Example 196, (R)-cyclopropyl({2-fluoro-3-[(4-fluorophenyl)carbonyl]-4-methoxyphenyl})methanamine] | 2.3 | 1 to 5 | – |
| C[C@H](CC(N)=O)N[C@@H](c1ccc(Cl)c(C(=O)c2ccc(N)cn2)c1F)C1CC1 [Example 254, (3R)-3-{[(R)-{3-[(5-aminopyridin-2-yl)carbonyl]-4-chloro-2-fluorophenyl}(cyclopropyl)methyl]amino}butanamide] | 1.8 | 1 to 5 | – |
| [2H]C([2H])([2H])C([2H])([2H])[C@@H](N)c1ccc(Cl)c(C(=O)c2ccccc2)c1F [Example 23, (1R)-1-(3-benzoyl-4-chloro-2-fluorophenyl)(2,2,3,3,3-D)propan-1-amine] | 0.11 | < 1 | – |
| CC[C@@H](NC1CC1)c1ccc(Cl)c(C(=O)c2cccnc2)c1F [Example 296, N-[(1R)-1-{4-chloro-2-fluoro-3-[(pyridin-3-yl)carbonyl]phenyl}-propyl]cyclopropanamine] | 13 | – | IC50 [3]: < 30 µM |
| CC[C@@H](N[C@H](C)CC(N)=O)c1ccc(OC)c(C(=O)c2ccc(F)cc2)c1F [Example 199, (3R)-3-{[(1R)-1-{2-fluoro-3-[(4-fluorophenyl)carbonyl]-4-methoxyphenyl}propyl]amino}butanamide] | – | – | inhibition at 100 µM (@ 100 uM): 32% |
| CC[C@@H](N[C@@H](C)CC(N)=O)c1ccc(OC)c(C(=O)c2cccc(F)c2)c1F [Example 212, (3S)-3-{[(1R)-1-{2-fluoro-3-[(3-fluorophenyl)carbonyl]-4-methoxyphenyl}propyl]amino}butanamide] | 0.094 | – | – |
| CC[C@@H](N)c1ccc(Cl)c(C(=O)c2ccc(C#N)nc2)c1F [Example 34, 5-({3-[(1R)-1-aminopropyl]-6-chloro-2-fluorophenyl}carbonyl)pyridine-2-carbonitrile] | – | 1 to 5 | inhibition at 3 µM: 55% |
| CC[C@@H](N)c1ccc(Cl)c(C(=O)c2ccc(C(=O)O)nc2)c1F [Example 19, 5-({3-[(1R)-1-aminopropyl]-6-chloro-2-fluorophenyl}carbonyl)pyridine-2-carboxylic acid] | 20 | – | IC50 [3]: < 30 µM |
| CC[C@@H](N[C@H](C)CC(N)=O)c1ccc(Cl)c(C(=O)c2ccnc(N)c2)c1F [Example 206, (3R)-3-{[(1R)-1-{3-[(2-aminopyridin-4-yl)carbonyl]-4-chloro-2-fluorophenyl}propyl]amino}butanamide] | 1.2 | 1 to 5 | – |
| CC[C@@H](N[C@H](C)CC(N)=O)c1ccc(Cl)c(C(=O)c2cc[n+]([O-])cc2)c1F [Example 143, (R)-3-{(R)-1-[4-Chloro-2-fluoro-3-(1-oxy-pyridine-4-carbonyl)-phenyl]propylamino}-butyramide] | – | – | Assay A % inhibition average: 59% @ 30 uM; IC50 [3]: < 30 µM |
| CC[C@@H](N)c1ccc(Cl)c(C(=O)c2ccncc2)c1F [Example 15, (1R)-1-{4-chloro-2-fluoro-3-[(pyridin-4-yl)carbonyl]phenyl}propan-1-amine] | 0.84 | < 1 | – |
| CC[C@@H](N[C@H](C)CC(N)=O)c1ccc(Cl)c(C(=O)c2ccncc2)c1F [Example 107, (3R)-3-{[(1R)-1-{4-chloro-2-fluoro-3-[(pyridin-4-yl)carbonyl]phenyl}propyl]-amino}butanamide] | 1.1 | 1 to 5 | – |
| CC[C@@H](N[C@H](C)CC(=O)NCCN)c1ccc(Cl)c(C(=O)c2ccccc2)c1F [Example 87, (3R)—N-(2-Aminoethvl)-3-{[(1R)-1-(3-benzoyl-4-chloro-2-fluorophenyl)propyl]-amino}butanamide] | – | – | inhibition at 0.01 µM (@ 0.01 uM): 54% |
| C[C@H](CC(N)=O)N[C@@H](c1ccc(Cl)c(C(=O)c2ccc(C#N)cn2)c1F)C1CC1 [Example 245, (3R)-3-{[(R)-{4-chloro-3-[(5-cyanopyridin-2-yl)carbonyl]-2-fluorophenyl}(cyclopropyl)methyl]amino}butanamide] | 3.4 | 1 to 5 | – |
| CC[C@@H](NCC1CC1)c1ccc(Cl)c(C(=O)c2cccnc2)c1F [Example 284] | 2.7 | 1 to 5 | – |
